The record followed here is ChEMBL document CHEMBL4014283, “Structural insights of SmKDAC8 inhibitors: Targeting Schistosoma epigenetics through a combined structure-based 3D QSAR, in vitro and synthesis strategy” (Bioorg Med Chem, 2017).

Activity calls are given as the source filed them. The rule behind the calls is not given here. Some results are limits rather than exact numbers.

Usually inhibition stands for the share of the control response that was lost under treatment. As usually defined, the IC50 is the concentration that inhibits the measured activity by half.

Series [1] has as its target T1, Histone deacetylase 8 (Homo sapiens, UniProt Q9BY41).
T1 sequence (Q9BY41 whole entry): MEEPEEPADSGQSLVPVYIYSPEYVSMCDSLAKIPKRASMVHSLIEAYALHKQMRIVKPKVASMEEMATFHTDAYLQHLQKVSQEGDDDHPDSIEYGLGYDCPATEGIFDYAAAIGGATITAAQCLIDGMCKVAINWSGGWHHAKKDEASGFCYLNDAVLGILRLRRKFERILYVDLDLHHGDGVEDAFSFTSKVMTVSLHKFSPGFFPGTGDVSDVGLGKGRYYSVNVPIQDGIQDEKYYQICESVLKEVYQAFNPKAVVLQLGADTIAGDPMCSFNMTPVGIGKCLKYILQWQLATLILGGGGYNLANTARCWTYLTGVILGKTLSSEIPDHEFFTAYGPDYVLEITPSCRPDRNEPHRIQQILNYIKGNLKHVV
The series is described as follows: Inhibition of full length human C-terminal His-tagged KDAC8 expressed in baculovirus expression system at 30 uM using (FAM)-labeled peptide as substrate after 60 mins by microfluidic assay relative to control. To be noted: 1 h, 30 µM.

In series [2] the target is T2, Histone deacetylase 8 (Schistosoma mansoni) (UniProt A5H660).
T2 sequence (whole entry): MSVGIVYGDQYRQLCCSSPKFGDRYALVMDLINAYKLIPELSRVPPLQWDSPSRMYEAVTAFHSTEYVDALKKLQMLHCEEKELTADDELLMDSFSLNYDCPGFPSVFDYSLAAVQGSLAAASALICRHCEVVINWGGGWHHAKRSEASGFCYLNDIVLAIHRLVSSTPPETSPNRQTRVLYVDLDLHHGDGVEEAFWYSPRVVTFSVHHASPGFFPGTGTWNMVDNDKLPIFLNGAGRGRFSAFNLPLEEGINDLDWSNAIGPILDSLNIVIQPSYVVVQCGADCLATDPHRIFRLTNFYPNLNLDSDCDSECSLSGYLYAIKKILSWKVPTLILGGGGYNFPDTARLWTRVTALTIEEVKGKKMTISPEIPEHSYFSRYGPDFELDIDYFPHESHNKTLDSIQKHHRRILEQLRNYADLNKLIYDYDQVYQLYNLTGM
The series is described as follows: Inhibition of Schistosoma mansoni KDAC8 at 30 uM using (FAM)-labeled peptide as substrate after 60 mins by microfluidic assay.

Series [3] has as its target Histone deacetylase 1 (Homo sapiens, UniProt Q13547). The experiment in a line: Inhibition of full length human C-terminal FLAG/His-tagged KDAC1 expressed in baculovirus expression system at 30 uM using substrate A after 60 mins by microfluidic assay relative to control. To be noted: 1 h, 30 µM.
Series [4] concerns the target T3, Protein deacetylase HDAC6 (Homo sapiens, UniProt Q9UBN7).
T3 sequence (Q9UBN7 whole entry): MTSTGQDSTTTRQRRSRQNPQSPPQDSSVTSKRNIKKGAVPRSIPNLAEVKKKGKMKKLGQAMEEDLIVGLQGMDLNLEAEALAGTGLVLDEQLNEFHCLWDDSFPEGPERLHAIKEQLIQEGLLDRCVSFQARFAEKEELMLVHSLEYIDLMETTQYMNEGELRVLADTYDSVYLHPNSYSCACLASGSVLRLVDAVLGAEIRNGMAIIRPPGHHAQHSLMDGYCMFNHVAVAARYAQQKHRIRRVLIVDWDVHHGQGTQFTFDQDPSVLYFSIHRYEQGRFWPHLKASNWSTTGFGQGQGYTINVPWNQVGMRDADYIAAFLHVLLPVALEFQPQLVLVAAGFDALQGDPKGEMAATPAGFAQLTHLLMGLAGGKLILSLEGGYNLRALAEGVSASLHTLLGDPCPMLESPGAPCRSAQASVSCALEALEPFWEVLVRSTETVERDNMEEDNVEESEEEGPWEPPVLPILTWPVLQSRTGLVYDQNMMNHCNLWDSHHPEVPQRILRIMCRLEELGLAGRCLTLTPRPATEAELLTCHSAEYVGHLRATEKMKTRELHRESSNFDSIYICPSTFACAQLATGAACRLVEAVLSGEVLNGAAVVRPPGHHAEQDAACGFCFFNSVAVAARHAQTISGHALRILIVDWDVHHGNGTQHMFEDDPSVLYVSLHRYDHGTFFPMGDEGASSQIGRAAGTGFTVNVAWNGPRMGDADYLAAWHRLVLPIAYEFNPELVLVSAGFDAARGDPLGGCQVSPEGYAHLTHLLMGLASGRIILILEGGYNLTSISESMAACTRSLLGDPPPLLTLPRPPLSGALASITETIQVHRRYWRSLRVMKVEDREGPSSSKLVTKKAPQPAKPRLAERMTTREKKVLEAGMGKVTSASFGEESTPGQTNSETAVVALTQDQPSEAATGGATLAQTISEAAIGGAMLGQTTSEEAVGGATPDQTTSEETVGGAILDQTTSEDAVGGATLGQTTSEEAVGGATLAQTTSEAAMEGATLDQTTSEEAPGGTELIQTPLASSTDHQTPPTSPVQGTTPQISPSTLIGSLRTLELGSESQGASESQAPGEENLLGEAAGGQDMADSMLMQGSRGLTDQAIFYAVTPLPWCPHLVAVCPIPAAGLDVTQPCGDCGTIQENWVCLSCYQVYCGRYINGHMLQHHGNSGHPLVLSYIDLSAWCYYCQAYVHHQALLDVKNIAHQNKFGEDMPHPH
The series is described as follows: Inhibition of human KDAC6 expressed in baculovirus expression system at 30 uM using FITC-Histone 4 acetylated peptide as substrate after 60 mins by microfluidic assay. To be noted: 1 h, 30 µM.

Series [5] deals with KDAC3/NCOR2 (histone deacetylase 3/nuclear receptor corepressor 2 complex) (Homo sapiens, UniProt O15379). The experiment in a line: Inhibition of full length human C-terminal His-tagged KDAC3/N-terminal GST-tagged human NCOR2 (395 to 489 residues) expressed in baculovirus expression system at 30 uM using FITC-p53 acetylated peptide as substrate after 60 mins by microfluidic assay. To be noted: probe FITC-p53 acetylated peptide.
Sequence of KDAC3/NCOR2 (histone deacetylase 3/nuclear receptor corepressor 2 complex) (O15379 whole entry, the tested form may be a part): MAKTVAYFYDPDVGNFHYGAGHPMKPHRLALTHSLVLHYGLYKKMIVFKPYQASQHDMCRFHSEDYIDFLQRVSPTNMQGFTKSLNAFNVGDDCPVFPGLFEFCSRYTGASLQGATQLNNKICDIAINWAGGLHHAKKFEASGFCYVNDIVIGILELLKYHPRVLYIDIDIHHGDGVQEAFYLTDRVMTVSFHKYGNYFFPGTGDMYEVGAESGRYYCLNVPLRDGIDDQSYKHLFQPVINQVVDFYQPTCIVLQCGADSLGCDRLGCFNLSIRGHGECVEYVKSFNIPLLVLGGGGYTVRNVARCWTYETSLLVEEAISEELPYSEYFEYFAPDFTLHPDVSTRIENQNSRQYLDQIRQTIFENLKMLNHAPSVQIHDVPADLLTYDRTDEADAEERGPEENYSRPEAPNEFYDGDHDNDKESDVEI
Sequence of KDAC3/NCOR2 (histone deacetylase 3/nuclear receptor corepressor 2 complex) (Q9Y618 whole entry, further chain, the tested form may be a part): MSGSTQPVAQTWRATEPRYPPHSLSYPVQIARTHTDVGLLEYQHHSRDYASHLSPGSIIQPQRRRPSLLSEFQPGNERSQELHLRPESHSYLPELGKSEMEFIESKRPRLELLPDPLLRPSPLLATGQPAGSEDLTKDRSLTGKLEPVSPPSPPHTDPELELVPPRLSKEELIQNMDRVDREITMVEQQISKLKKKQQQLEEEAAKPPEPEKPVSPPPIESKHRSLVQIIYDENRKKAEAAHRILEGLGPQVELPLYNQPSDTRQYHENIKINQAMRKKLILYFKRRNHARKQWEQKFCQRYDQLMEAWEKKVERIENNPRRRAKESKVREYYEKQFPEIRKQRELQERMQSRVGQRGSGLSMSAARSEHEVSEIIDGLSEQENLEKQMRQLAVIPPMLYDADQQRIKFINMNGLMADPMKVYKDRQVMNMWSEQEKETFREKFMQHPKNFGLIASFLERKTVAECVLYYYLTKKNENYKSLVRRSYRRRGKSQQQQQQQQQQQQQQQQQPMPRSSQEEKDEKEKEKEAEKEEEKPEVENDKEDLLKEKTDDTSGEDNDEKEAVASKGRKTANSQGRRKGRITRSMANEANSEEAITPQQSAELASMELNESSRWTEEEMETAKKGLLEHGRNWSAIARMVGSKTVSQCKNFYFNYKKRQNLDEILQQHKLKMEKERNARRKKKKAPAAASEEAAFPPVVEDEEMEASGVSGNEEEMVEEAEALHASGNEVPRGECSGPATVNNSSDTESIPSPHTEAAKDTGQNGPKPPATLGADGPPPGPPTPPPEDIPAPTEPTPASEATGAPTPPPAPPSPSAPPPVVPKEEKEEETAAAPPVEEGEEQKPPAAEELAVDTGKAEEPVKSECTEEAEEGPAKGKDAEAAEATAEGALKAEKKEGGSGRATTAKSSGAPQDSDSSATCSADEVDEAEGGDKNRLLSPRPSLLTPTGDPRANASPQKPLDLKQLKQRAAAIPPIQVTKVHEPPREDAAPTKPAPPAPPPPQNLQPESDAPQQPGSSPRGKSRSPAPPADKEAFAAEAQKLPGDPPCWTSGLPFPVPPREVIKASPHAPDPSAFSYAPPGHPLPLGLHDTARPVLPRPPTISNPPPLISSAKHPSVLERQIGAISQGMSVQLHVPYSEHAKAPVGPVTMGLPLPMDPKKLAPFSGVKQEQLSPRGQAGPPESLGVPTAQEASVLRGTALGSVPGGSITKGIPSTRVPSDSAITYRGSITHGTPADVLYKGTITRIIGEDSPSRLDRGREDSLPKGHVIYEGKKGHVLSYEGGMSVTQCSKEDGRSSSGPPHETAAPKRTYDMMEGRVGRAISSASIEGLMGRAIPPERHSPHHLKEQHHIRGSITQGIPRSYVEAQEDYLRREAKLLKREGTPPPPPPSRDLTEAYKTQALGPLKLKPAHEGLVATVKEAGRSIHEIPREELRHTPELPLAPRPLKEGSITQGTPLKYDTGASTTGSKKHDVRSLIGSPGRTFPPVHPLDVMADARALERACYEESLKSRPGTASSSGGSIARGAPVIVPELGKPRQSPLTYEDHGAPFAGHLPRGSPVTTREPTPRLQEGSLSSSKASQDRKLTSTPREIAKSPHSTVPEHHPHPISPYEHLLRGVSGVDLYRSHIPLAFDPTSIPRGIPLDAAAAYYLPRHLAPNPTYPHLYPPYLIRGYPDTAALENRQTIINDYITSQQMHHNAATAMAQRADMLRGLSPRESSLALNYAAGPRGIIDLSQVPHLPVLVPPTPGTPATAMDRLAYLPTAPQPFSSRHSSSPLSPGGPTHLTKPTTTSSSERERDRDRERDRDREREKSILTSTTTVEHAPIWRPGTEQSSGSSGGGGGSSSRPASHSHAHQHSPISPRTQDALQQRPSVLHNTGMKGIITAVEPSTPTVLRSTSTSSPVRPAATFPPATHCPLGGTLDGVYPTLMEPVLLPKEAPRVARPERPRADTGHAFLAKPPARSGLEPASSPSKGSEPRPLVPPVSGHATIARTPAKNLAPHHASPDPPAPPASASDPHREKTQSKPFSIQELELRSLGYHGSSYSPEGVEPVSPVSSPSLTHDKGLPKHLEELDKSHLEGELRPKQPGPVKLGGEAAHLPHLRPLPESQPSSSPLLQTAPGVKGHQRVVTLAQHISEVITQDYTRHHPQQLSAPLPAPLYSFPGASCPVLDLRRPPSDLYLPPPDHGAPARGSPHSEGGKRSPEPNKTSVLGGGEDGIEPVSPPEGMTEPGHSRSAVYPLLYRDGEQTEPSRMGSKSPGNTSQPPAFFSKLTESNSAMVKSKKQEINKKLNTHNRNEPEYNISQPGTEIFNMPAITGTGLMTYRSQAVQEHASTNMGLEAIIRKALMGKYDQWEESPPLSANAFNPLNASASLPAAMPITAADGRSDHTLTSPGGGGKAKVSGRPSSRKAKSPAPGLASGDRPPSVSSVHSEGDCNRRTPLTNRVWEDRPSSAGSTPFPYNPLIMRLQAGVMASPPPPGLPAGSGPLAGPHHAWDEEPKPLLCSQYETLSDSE

The target of series [6] is T4, Histone deacetylase 8 (Schistosoma mansoni, UniProt A5H660).
T4 sequence (A5H660 whole entry): T2 sequence (whole entry)
The series is described as follows: Inhibition of Schistosoma mansoni KDAC8 using (FAM)-labeled peptide as substrate after 60 mins by microfluidic assay. To be noted: read-out: IC50.

Sequence of Histone deacetylase 1 (Q13547 whole entry): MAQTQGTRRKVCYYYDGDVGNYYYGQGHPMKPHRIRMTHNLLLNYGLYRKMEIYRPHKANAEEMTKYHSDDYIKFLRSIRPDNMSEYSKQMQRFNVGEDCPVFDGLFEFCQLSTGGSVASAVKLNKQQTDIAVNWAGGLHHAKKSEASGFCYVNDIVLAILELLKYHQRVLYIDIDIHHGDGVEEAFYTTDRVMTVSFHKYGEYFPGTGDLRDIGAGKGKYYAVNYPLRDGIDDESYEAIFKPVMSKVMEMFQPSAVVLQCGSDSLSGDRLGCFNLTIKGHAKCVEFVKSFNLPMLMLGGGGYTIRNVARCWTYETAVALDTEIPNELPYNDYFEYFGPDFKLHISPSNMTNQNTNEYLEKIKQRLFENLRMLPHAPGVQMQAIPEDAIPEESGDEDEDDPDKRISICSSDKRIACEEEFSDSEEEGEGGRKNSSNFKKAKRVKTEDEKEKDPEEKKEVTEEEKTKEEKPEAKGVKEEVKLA

For the molecule `C=CCN=C(S)Nc1cccc([N+](=O)[O-])c1`, the “inhibition (INH)” value in series [1], in series [3] and in series [4] was “Not Active” in each case. Also, the inhibition in series [2] stood at 2%. The molecule also had an inhibition at 1 h, 30 µM in series [5] of 3%.

Take `NS(=O)(=O)c1ccc(Nc2ccccc2)c([N+](=O)[O-])c1`: the “inhibition (INH)” value in series [1], in series [3] and in series [4] was “Not Active” each time. This molecule showed an inhibition in series [2] of 12%. Moreover, in series [5], the inhibition at 1 h, 30 µM is 1%.

In the case of `Cc1ccc(Nc2nnc(S)s2)cc1F`, the “inhibition (INH)” value in series [1], in series [3] and in series [4] was “Not Active” in each case. The inhibition in series [2] was found to be 8%. In addition, the inhibition at 1 h, 30 µM in series [5] came to 2%.

Consider `COC(=O)C(=Cc1ccccc1[N+](=O)[O-])C(=O)OC`, for which the “inhibition (INH)” value in series [1], in series [3] and in series [4] was “Not Active” each time. The molecule also registered an inhibition in series [2] of 3%. This molecule returned an inhibition at 1 h, 30 µM in series [5] of 3%.

In series [2], `NC(=O)CC[C@@H]1N=C(c2ccccc2)c2ccccc2N(CCCCC(=O)NO)C1=O` displayed an inhibition of 11.6%. Further, the IC50 in series [6] was over 30 µM.

In turn, `O=C(CC[C@H]1N=C(c2ccccc2)c2ccccc2NC1=O)NO` displayed an inhibition in series [2] of 24%. In addition, the IC50 in series [6] is over 30 µM.

Turning to `CC(C)(C)OC[C@@H]1N=C(c2ccccc2)c2ccccc2N(CCCCC(=O)O)C1=O`, in series [2], the inhibition worked out at 0%. The IC50 in series [6] was over 30 µM.

The molecule `CC(C)(C)OC(=O)n1c(C[C@@H]2N=C(c3ccccc3)c3ccccc3N(CCCCC(=O)NO)C2=O)cc2ccccc21` registered an inhibition in series [2] of 12.5%. For the same molecule, the half-inhibitory concentration (IC50) in series [6] was over 30 µM.

In turn, `O=C(O)CC[C@@H]1N=C(c2ccccc2)c2ccccc2NC1=O` showed an inhibition in series [2] of 0%. Also, in series [6], the 50% inhibitory concentration (IC50) was over 30 µM.

`CC(C)(C)SC[C@H]1N=C(c2ccccc2)c2ccccc2NC1=O`: the inhibition in series [2] was found to be 0%. Moreover, the IC50 in series [6] is over 30 µM.

`COC(=O)CCCCN1C(=O)[C@@H](CSC(C)(C)C)N=C(c2ccccc2)c2ccccc21` displayed an inhibition in series [2] of 0%. Moreover, in series [6], the half-maximal inhibitory concentration (IC50) is over 30 µM.

For `C[C@@H]1N=C(c2ccccc2)c2ccccc2NC1=O`, in series [2], the inhibition was 0%. Also, in series [6], the IC50 is over 30 µM.

In series [2], `C[C@@H](O)[C@@H]1N=C(c2ccccc2)c2ccccc2N(CCCCC(=O)NO)C1=O` had an inhibition of 0.91%. In addition, in series [6], the IC50 is over 30 µM.

As to `COC(=O)CCCCN1C(=O)[C@H](Cc2cncn2C(c2ccccc2)(c2ccccc2)c2ccccc2)N=C(c2ccccc2)c2ccccc21`, the inhibition in series [2] came out at 2.5%. Moreover, the IC50 in series [6] was over 30 µM.

Regarding `O=C(O)CC[C@@H]1N=C(c2ccccc2)c2ccccc2N(CCCCC(=O)NO)C1=O`, in series [2], the inhibition is 13.4%. Further, the concentration for half-maximal inhibition (IC50) in series [6] is over 30 µM.

With `O=C(C[C@@H]1N=C(c2ccccc2)c2ccccc2NC1=O)NC(c1ccccc1)(c1ccccc1)c1ccccc1`, the inhibition in series [2] was 0%. Besides, in series [6], the IC50 was over 30 µM.

On to `NC(=O)c1ccccc1OCC(=O)Nc1ccc(Cl)c(Cl)c1`, for which the “inhibition (INH)” value in series [1], in series [3] and in series [4] was “Not Active” throughout. The inhibition in series [2] is 2%. The molecule also came in with an inhibition at 1 h, 30 µM in series [5] of 6%.

In series [2], `C[C@H](OCc1ccccc1)[C@@H]1N=C(c2ccccc2)c2ccccc2N(CCCCC(=O)O)C1=O` came in with an inhibition of 0%. The IC50 in series [6] was over 30 µM.

In series [2], `O=C(CCCCN1C(=O)[C@H](Cc2cncn2C(c2ccccc2)(c2ccccc2)c2ccccc2)N=C(c2ccccc2)c2ccccc21)NO` yielded an inhibition of 3.81%. For the same molecule, the IC50 in series [6] was over 30 µM.

Consider `CCOC(=O)C1=C(N)N=C(N)C1=Nc1ccc(OC)cc1`, for which the “inhibition (INH)” value in series [1], in series [3] and in series [4] was “Not Active” each time. Moreover, the inhibition entry in series [2] is “inactive”. Also, the inhibition at 1 h, 30 µM in series [5] worked out at 7%.

`CC(C)[C@@H]1N=C(c2ccccc2)c2ccccc2NC1=O` displayed an inhibition in series [2] of 0%. For the same molecule, the concentration for half-maximal inhibition (IC50) in series [6] is over 30 µM.

The molecule `O=C(CCCCN1C(=O)[C@@H](CS)N=C(c2ccccc2)c2ccccc21)NO` had an inhibition in series [2] of 57%. Besides, the IC50 in series [6] was found to be 20.9 µM.

`O=C(O)CCCCN1C(=O)[C@H](CCC(=O)O)N=C(c2ccccc2)c2ccccc21` showed an inhibition in series [2] of 0%. In addition, the IC50 in series [6] is over 30 µM.

Consider `CC(C)(C)OC[C@@H]1N=C(c2ccccc2)c2ccccc2NC1=O`, for which, in series [2], the inhibition stood at 0%. Further, the half-inhibitory concentration (IC50) in series [6] is over 30 µM.

As to `O=C(O)CCCCN1C(=O)[C@H](Cc2ccccc2)N=C(c2ccccc2)c2ccccc21`, the inhibition in series [2] stood at 0%. Further, the IC50 in series [6] was over 30 µM.

Molecule `CC[C@H](C)[C@@H]1N=C(c2ccccc2)c2ccccc2NC1=O` yielded an inhibition in series [2] of 0%. Further, in series [6], the IC50 is over 30 µM.

`O=C(CCCCN1C(=O)[C@H](Cc2cc3ccccc3[nH]2)N=C(c2ccccc2)c2ccccc21)NO` gave an inhibition in series [2] of 19.7%. Further, the half-maximal inhibitory concentration (IC50) in series [6] was over 30 µM.

With `COC(=O)CCCCN1C(=O)[C@H](CCCNC(=N)NS(=O)(=O)c2c(C)c(C)c3c(c2C)CC(C)(C)O3)N=C(c2ccccc2)c2ccccc21`, in series [2], the inhibition amounted to 0%. In series [6], the half-maximal inhibitory concentration (IC50) was over 30 µM.

Regarding `COC(=O)CCCCN1C(=O)[C@H](Cc2cc3ccccc3n2C(=O)OC(C)(C)C)N=C(c2ccccc2)c2ccccc21`, the inhibition in series [2] turned out to be 0%. For the same molecule, the IC50 in series [6] is over 30 µM.

In series [2], `C[C@@H](OCc1ccccc1)[C@@H]1N=C(c2ccccc2)c2ccccc2N(CCCCC(=O)NO)C1=O` yielded an inhibition of 20.5%. In series [6], the IC50 was over 30 µM.

In the case of `COC(=O)CCCCN1C(=O)[C@H](Cc2ccccc2)N=C(c2ccccc2)c2ccccc21`, in series [2], the inhibition was 0%. For the same molecule, the IC50 in series [6] was over 30 µM.

In series [2], `O=C1Nc2ccccc2C(c2ccccc2)=N[C@H]1Cc1ccccc1` gave an inhibition of 0%. Besides, the 50% inhibitory concentration (IC50) in series [6] was over 30 µM.

As to `CC(C)[C@@H]1NC(=O)[C@H]2CCCN2C(=O)[C@@H]2CCCN2C(=O)C[C@H](C(=O)NCCCC(=O)NO)NC1=O`, the inhibition in series [2] is under 26%. In series [6], the concentration for half-maximal inhibition (IC50) was over 30 µM.
